Read-outs that look alike come from different tables or passages of the source.
What was measured:
[1] = Metabolic stability in rat hepatocytes; assay type: in vitro ADME; conditions: cryopreserved hepatocytes, 1 μM, 1×10^6 cells/mL, 0-240 min; for half-life at 1 μM: read-out: Rat t1/2
Procedure: (§1) Test compounds were incubated in rat and human hepatocytes and stability was assessed from the substrate […] approach. Test compounds were dissolved in dimethyl sulfoxide (DMSO) to create a 10 mM Stock, and then further diluted to create a 1000× Working Stock of 1 mM with DMSO in 96-well plates for test compounds and the positive control (midazolam). Vials containing cryopreserved hepatocytes were removed from the liquid nitrogen tank and immediately immersed in a 37° C. water bath. The vials were shaken gently until the contents had thawed and were then immediately emptied into 48 mL of pre-warmed HT Medium in a 50 mL conical tube. Cells remaining in the vial were resuspended with 1.0 mL of pre-warmed HT Medium and added to the conical tube. The tube was capped and then gently inverted several times to resuspend the hepatocytes. The cell suspension was centrifuged at 50×g at room temperature for 5 minutes and the supernatant discarded. The cell pellet was loosened by gently swirling the centrifuge tube and was re-suspended in 4 mL of warm Dulbecco's Modified Eagle medium (DMEM). Cell density was determined by a cell counter by Nexcelom, and DMEM medium was added to obtain a target density of 1×10^6 cells/mL. The assay was carried out in 96-well microtiter plates. Test Compounds were incubated at 1 μM with 1×10^6 cells/mL hepatocytes in DMEM for 0, 30, 60, 120 and 240 minutes. The incubation was carried out with gentle shaking at 37° C. under a humid atmosphere of 95% air/5% CO2. The volume of the incubation mixture was 37 μL with a final 0.1% DMSO. At each of the time points, the incubation was stopped by adding 150 μL quenching solution (100% acetonitrile, 0.1% formic acid containing bucetin as an internal standard for positive ESI mode). Subsequently, the mixtures were vortexed for 20 min and centrifuged at 4,000 RPM at 10° C. The supernatant (80 μL) was transferred to a clean 96-well plate and analyzed by LC-MS/MS. Midazolam at 1 μM with a final 0.1% DMSO was included as a positive control to verify assay performance. The percent parent remaining, intrinsic and predicted hepatic clearance and t1/2 were calculated. All samples were analyzed by LC-MS/MS using an AB Sciex API 4000 instrument, coupled to a Shimadzu LC-20AD LC Pump system. Separation was achieved using a Waters Atlantis T3 dC18 reverse phase HPLC column (20 mm×2.1 mm) at a flow rate of 0.5 mL/min. The mobile phase consisted of 0.1% formic acid in water (solvent A) and 0.1% formic acid in 100% acetonitrile (solvent B). Elution conditions are detailed below.
(§2) The ion optics of each test compound were optimized for their declustering potential (DP), […] (CE), collision-cell exit potential (CXP) and used in a selected ion monitoring experiment in the positive ion mode. The peak area ratio of each test compound to internal standard was then evaluated for stability. The extent of metabolism was calculated based on the disappearance of the test compound, compared to its initial concentration. The initial rates of clearance of the test compound were calculated using the linear regression plot of semi-log % remaining of the compound versus time. The elimination rate constant (k) of the linear regression plot was then used to determine t1/2 and the intrinsic clearance (CLint) using the following formula, where Chepatocyte (million cells/mL) is the cell density of the incubation:
(§3) The predicted hepatic clearance (CLhep) was calculated using the well stirred method with the following formula with CLint (in vivo) normalized based on liver weight: […]
(§4) The relevant physiological parameters of liver weight, blood flow, and hepatocellularity for various species are listed below: […]

[2] = tested on: rat hepatocytes; test: Metabolic stability in rat hepatocytes; assay type: in vitro ADME; conditions: predicted hepatic clearance, well stirred method
Procedure: as §1, §2, §3, §4

[3] = Metabolic stability in human hepatocytes; assay type: in vitro ADME; conditions: cryopreserved hepatocytes, 1 μM, 1×10^6 cells/mL, 0-240 min; for half-life at 1 μM: read-out: Human t1/2
Procedure: as §1, §2, §3, §4

[4] = tested on: human hepatocytes; test: Metabolic stability in human hepatocytes; assay type: in vitro ADME; conditions: predicted hepatic clearance, well stirred method
Procedure: as §1, §2, §3, §4

[5] = Rat pharmacokinetics, oral dosing; assay type: in vivo, Sprague-Dawley rats; conditions: male, Sprague-Dawley, plasma; for half-life: read-out: Rat T1/2

| SMILES | CLint scaled at 1 μM [1] [mL/min/kg] | half-life at 1 μM [1] [min] | Rat Clhep predicted [2] [mL/min/kg] | CLint scaled at 1 μM [3] [mL/min/kg] | half-life at 1 μM [3] [min] | Human Clhep predicted [4] [mL/min/kg] | AUC ([5]; oral dosing at 10 mg/kg) [ng·h/mL] | Cmax ([5]; oral dosing at 10 mg/kg) [ng/mL] | half-life ([5]; oral dosing at 10 mg/kg) [min] | bioavailability ([5]; oral dosing at 10 mg/kg) [%] | AUC ([5]; oral dosing at 3 mg/kg) [ng·h/mL] | Cmax ([5]; oral dosing at 3 mg/kg) [ng/mL] | half-life ([5]; oral dosing at 3 mg/kg) [min] | bioavailability ([5]; oral dosing at 3 mg/kg) [%] |
| --- | --- | --- | --- | --- | --- | --- | --- | --- | --- | --- | --- | --- | --- | --- |
| COc1cc(C(=O)O)cc2c1nc(CN1CCC(c3cccc(OCc4ccc(C#N)cc4F)n3)CC1)n2Cc1cncs1 [Compound 1, 2-((4-(6-((4-Cyano-2-fluorobenzyl)oxy)pyridin-2-yl)piperidin-1-yl)methyl)-4-methoxy-1-(thiazol-5-ylmethyl)-1H-benzo[d]imidazole-6-carboxylic acid] | 68.7 ± 3.5 | 48.4 ± 2.46 | 30.61 ± 3.29 | 14.2 ± 0.97 | 170 ± 11.6 | 8.42 ± 0.92 | 500 to 2500 | 500 to 1000 | 90 to 150 | 25 to 50 | – | – | – | – |
| COc1cc(C(=O)O)cc2c1nc(CN1CCC(c3cccc(OCc4ccc(C#N)cc4F)n3)CC1)n2C[C@@H]1CCO1 [Compound 8, (S)-2-((4-(6-((4-Cyano-2-fluorobenzyl)oxy)pyridin-2-yl)piperidin-1-yl)methyl)-4-methoxy-1-(oxetan-2-ylmethyl)-1H-benzo[d]imidazole-6-carboxylic acid] | 27.4 ± 1.77 | 121 ± 7.83 | 18.31 ± 1.71 | 6.18 ± 0.7 | 4.46 ± 0.67 | 4.76 ± 0.68 | – | – | – | – | < 500 | < 500 | ≥ 150 | < 25 |
